Source: patent US20240409559A1, “CRYSTALLINE FORM OF AZALACTAM COMPOUND” (PFIZER INC., priority 2021, published 2024)

Assays:
[1] = Moisture sorption/desorption by dynamic vapor sorption (DVS), with post-DVS PXRD; format: physicochemical
Source text: This example provides characterization data on PF-07265028 Form 1 from a sample obtained using a procedure disclosed in International Patent Publication No. WO2021/220185, using powder x-ray diffraction and dynamic vapor sorption to support the preparation of a disclosure. Form 1 is a crystalline hygroscopic tetrahydrate with multiple powder patterns depending on temperature and humidity. […] The dehydration risk can pose challenges to API isolation, storage and drug product manufacture. Maintaining the proper water content is considered to be difficult for Form 1.

[2] = Thermal analysis: dehydration by TGA; format: physicochemical

| SMILES | Hygroscopicity (in words) [1] | Post-DVS PXRD compared with in-going material ([1]; after DVS experiment) | Hygroscopicity: Moisture Sorption (DVS)-Anhydrous ([1]; at 60% RH) | Hygroscopicity: Moisture Sorption (DVS)-Anhydrous ([1]; at 75% RH) | Hygroscopicity: Moisture Sorption (DVS)-Anhydrous ([1]; at 90% RH) | Dehydration (TGA)-Hydrated/Solvated, weight loss [2] | Moisture Sorption/Desorption-Hydrate (DVS): Change in mass-ref (%) ([1]; 75% RH) | Moisture Sorption/Desorption-Hydrate (DVS): Change in mass-ref (%) ([1]; 90% RH) | Crystallinity after dehydration ([1]; after dehydration, PXRD after the water sorption experiment) | Post-DVS PXRD result ([1]; after water sorption experiment) | Moisture Sorption/Desorption-Hydrate (DVS): dehydration state ([1]; at 3% RH) | Moisture Sorption/Desorption-Hydrate (DVS): Change in mass-ref (%) ([1]; at 60% RH) | Moisture Sorption/Desorption-Hydrate (DVS): rehydrate at or below 10% RH ([1]; at or below 10% RH) | Rehydration at high humidity conditions ([1]; high humidity conditions, after dehydration) |
| --- | --- | --- | --- | --- | --- | --- | --- | --- | --- | --- | --- | --- | --- | --- |
| CC[C@@H](N)c1nc(N2CCC[C@H]2C)cc2c1CN(c1cccc(-c3nnc4n3[C@@H](C)CC4)n1)C2=O [Form 2, 4-[(1R)-1-aminopropyl]-2-{6-[(5S)-5-methyl-6,7-dihydro-5H-pyrrolo[2,1-c][1,2,4]triazol-3-yl]pyridin-2-yl}-6-[(2R)-2-methylpyrrolidin-1-yl]-2,3-dihydro-1H-pyrrolo[3,4-c]pyridin-1-one] | non-hygroscopic | Post-DVS PXRD is consistent with in- | ~0.2% at 60% RH | ~0.2% at 75% RH | ~0.2% at 90% RH | – | – | – | – | – | – | – | – | – |
| CC[C@@H](N)c1nc(N2CCC[C@H]2C)cc2c1CN(c1cccc(-c3nnc4n3[C@@H](C)CC4)n1)C2=O [Form 1, 4-[(1R)-1-aminopropyl]-2-{6-[(5S)-5-methyl-6,7-dihydro-5H-pyrrolo[2,1-c][1,2,4]triazol-3-yl]pyridin-2-yl}-6-[(2R)-2-methylpyrrolidin-1-yl]-2,3-dihydro-1H-pyrrolo[3,4-c]pyridin-1-one] | hygroscopic | – | – | – | – | ~14% weight loss | ~−2.4% | ~−0.1% | can lose crystallinity | peak shifting and disorder observed | Completely dehydrated | Change in mass-ref (%) at 60% RH: ~−6.2%; | did not | does not rehydrate |
